Ki data for 19 compounds are collected here from BindingDB's records for doi:10.1124/jpet.103.064907 (Abbott Laboratories, 2004).

SMILES strings stand for the structures. Some results are limits rather than exact numbers.

This assay has as its target T1, P2X purinoceptor 3 (Homo sapiens, UniProt P56373).
T1 sequence (P56373 whole entry): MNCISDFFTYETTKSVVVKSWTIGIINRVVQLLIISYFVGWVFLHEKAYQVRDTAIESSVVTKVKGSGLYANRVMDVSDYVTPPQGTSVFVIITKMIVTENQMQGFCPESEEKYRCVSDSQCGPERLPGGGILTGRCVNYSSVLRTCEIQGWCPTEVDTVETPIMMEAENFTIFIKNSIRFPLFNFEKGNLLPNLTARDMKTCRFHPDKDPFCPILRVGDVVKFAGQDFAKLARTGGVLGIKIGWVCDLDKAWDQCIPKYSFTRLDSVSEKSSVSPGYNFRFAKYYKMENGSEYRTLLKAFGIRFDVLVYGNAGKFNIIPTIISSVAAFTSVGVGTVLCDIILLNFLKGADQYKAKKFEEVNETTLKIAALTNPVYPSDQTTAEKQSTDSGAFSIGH

For orientation: Ki means a dissociation constant, usually derived from enzyme kinetics or from competition with a known ligand. Read a low Ki as tighter binding. `Nc1ncnc2c1ncn2[C@@H]1O[C@H](COP(=O)(O)OP(=O)(O)OP(=O)(O)O)[C@@H](O)[C@H]1O` returned a Ki of 14.6 nM. `Nc1ncnc2c1ncn2[C@H]1C[C@H](O)[C@@H](COP(=O)(O)OP(=O)(O)OP(=O)(O)O)O1` gave a Ki of 180 nM. Under `Nc1c(S(=O)(=O)O)cc(Nc2ccc(Nc3nc(Cl)nc(Nc4ccccc4S(=O)(=O)O)n3)c(S(=O)(=O)O)c2)c2c1C(=O)c1ccccc1C2=O` stands 2530 nM; under `Nc1ncnc2c1ncn2[C@H]1CC[C@@H](COP(=O)(O)OP(=O)(O)OP(=O)(O)O)O1` [2',3'-Dideoxyadenosine Triphosphate (Ddatp)], 406 nM; under `O=c1ccn([C@@H]2O[C@H](COP(=O)(O)OP(=O)(O)OP(=O)(O)O)[C@@H](O)[C@H]2O)c(=O)[nH]1` [({[({[5-(2,4-dioxo-1,2,3,4-tetrahydropyrimidin-1-yl)-3,4-dihydroxyoxolan-2-yl]methoxy}(hydroxy)phosphoryl)oxy](hydroxy)phosphoryl}oxy)phosphonic acid], 2610 nM. As for `Nc1ncnc2c1ncn2[C@@H]1O[C@H](COP(=O)(O)CP(=O)(O)OP(=O)(O)O)[C@@H](O)[C@H]1O` [({[({[5-(6-amino-9H-purin-9-yl)-3,4-dihydroxyoxolan-2-yl]methoxy}(hydroxy)phosphoryl)methyl](hydroxy)phosphoryl}oxy)phosphonic acid], the figure is 9 nM. Compound `Nc1ncnc2c1ncn2[C@@H]1O[C@H](COP(=O)(O)OP(=O)(O)O)[C@@H](O)[C@H]1O` [ADP] registered a Ki of 452 nM. Under `CSc1nc(N)c2ncn([C@@H]3O[C@H](COP(=O)(O)OP(=O)(O)OP(=O)(O)O)[C@@H](O)[C@H]3O)c2n1` [ATP, 2-meS] stands 8.2 nM; under `Nc1ncnc2c1ncn2[C@@H]1O[C@H](COP(=O)(O)OP(=O)(O)S)[C@@H](O)[C@H]1O` (some centres undefined) [CAS_123848], 297 nM; under `Nc1ncnc2c1ncn2C1OC(COP(=O)(O)OP(=O)(O)OP(=O)(O)OC2C(CO)OC(n3cnc4c(N)ncnc43)C2O)C(O)C1O` (centres undefined) [CAS_3035419], 1670 nM. `CN(C(Cc1ccc(OS(=O)(=O)c2cccc3cnccc23)cc1)C(=O)N1CCN(c2ccccc2)CC1)S(=O)(=O)c1cccc2cnccc12` (centres undefined) [KN-62] registered a Ki of over 10000 nM. `Nc1ncnc2c1ncn2[C@@H]1O[C@H](COP(=O)(O)OP(=O)(O)OP(=O)(O)O)C[C@H]1O` [NSC_0] had an inhibitory constant (Ki) of 47.3 nM. This counts as double-digit nanomolar. In turn, `Nc1ncnc2c1ncn2[C@@H]1O[C@H](COP(=O)(O)OP(=O)(O)OP(=O)(O)O)[C@@H](OC(=O)c2ccc(C(=O)c3ccccc3)cc2)[C@H]1O` [NSC_0] returned a Ki of 7.7 nM. Against the preceding compound, the Ki is about 6.1-fold lower. `Nc1ncnc2c1ncn2[C@@H]1O[C@H](CO[P@](=O)(O)O[P@](=O)(O)OC[C@H]2O[C@@H](n3cnc4c(N)ncnc43)[C@H](O)[C@@H]2O)[C@@H](O)[C@H]1O` [NSC_0] showed an inhibition constant (Ki) of over 10000 nM. Regarding `Nc1ncnc2c1ncn2C1OC(COP(=O)(O)OP(=O)(O)OP(=O)(O)OP(=O)(O)OP(=O)(O)OP(=O)(O)OCC2OC(n3cnc4c(N)ncnc43)C(O)C2O)C(O)C1O` (centres undefined) [NSC_123694], the Ki was determined as 4.8 nM.

In the case of `Nc1ncnc2c1ncn2C1OC(COP(=O)(O)OP(=O)(O)OP(=O)(O)OP(=O)(O)OP(=O)(O)OCC2OC(n3cnc4c(N)ncnc43)C(O)C2O)C(O)C1O` (centres undefined) [NSC_440210], affinity was put at a Ki of 10.4 nM.

Turning to `Nc1ncnc2c1ncn2C1OC(COP(=O)(O)OP(=O)(O)OP(O)(O)=S)C(O)C1O` (centres undefined) [NSC_440317], the affinity, expressed as Ki, was 40.3 nM. `Nc1ncnc2c1ncn2[C@@H]1O[C@H](COP(=O)(O)OP(=O)(O)CP(=O)(O)O)[C@@H](O)[C@H]1O` [adenylylmethylenediphosphonate]: the affinity corresponds to a Ki of 387 nM. Under `Nc1ncnc2c1ncn2[C@@H]1O[C@H](COP(=O)(O)CP(=O)(O)O)[C@@H](O)[C@H]1O` [alpha, beta-methyleneadenosine 5 -diphosphate] stands over 10000 nM.
